According to ChEMBL document CHEMBL1201862, “PubChem BioAssay data set” (2004):
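Tested at 5 concentrations; 48 h exposure; 96-well plates; endpoints linearly interpolated, else capped at highest concentration. GI50 marks 50% less growth.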 Activity calls are given as the source filed them. Rule as the data show it: active = GI50 up to about 1.1 µM and inactive = higher.

Columns and labels:
Experiment in all cases: growth of human tumour cells (NCI), 48 h
786-0 = system: 786-0
A498 = system: A498
A549 = system: A549
ACHN = system: ACHN
BT-549 = system: BT-549
CAKI-1 = system: CAKI-1
CCRF-CEM = system: CCRF-CEM
COLO 205 = system: COLO 205
EKVX = system: EKVX
HCT-116 = system: HCT-116
HCT-15 = system: HCT-15
HL-60 = system: HL-60
HOP-62 = system: HOP-62
HOP-92 = system: HOP-92
HT-29 = system: HT-29
Hs-578T = system: Hs-578T
IGROV-1 = system: IGROV-1
K562 = system: K562
KM12 = system: KM12
LOX IMVI = system: LOX IMVI
M14 = system: M14
MCF7 = system: MCF7
MDA-MB-231 = system: MDA-MB-231
MDA-MB-435 = system: MDA-MB-435
MDA-N = system: MDA-N
MOLT-4 = system: MOLT-4
Malme-3M = system: Malme-3M
NCI-H226 = system: NCI-H226
NCI-H23 = system: NCI-H23
NCI-H460 = system: NCI-H460
NCI/ADR-RES = system: NCI/ADR-RES
OVCAR-3 = system: OVCAR-3
OVCAR-4 = system: OVCAR-4
OVCAR-5 = system: OVCAR-5
OVCAR-8 = system: OVCAR-8
PC-3 = system: PC-3
RXF 393 = system: RXF 393
SF-295 = system: SF-295
SF-539 = system: SF-539
SK-MEL-28 = system: SK-MEL-28
SK-MEL-2 = system: SK-MEL-2
SK-MEL-5 = system: SK-MEL-5
SK-OV-3 = system: SK-OV-3
SN12C = system: SN12C
SNB-19 = system: SNB-19
SNB-75 = system: SNB-75
SR = system: SR
SW-620 = system: SW-620
TK-10 = system: TK-10
U-251 = system: U-251
UACC-257 = system: UACC-257
UACC-62 = system: UACC-62
UO-31 = system: UO-31
DU-145 = system: DU-145
HCC 2998 = system: HCC 2998
RPMI-8226 = system: RPMI-8226
SF-268 = system: SF-268
T47D = system: T47D

C=C1CC[C@@H](C)[C@](C)(CCc2ccoc2)C/C=C\C=C/1C(=O)O
GI50 (786-0): 46.6 µM (inactive) | GI50 (A498): 58.6 µM (inactive) | GI50 (A549): 36.2 µM (inactive) | GI50 (ACHN): 53.2 µM (inactive) | GI50 (BT-549): 19.5 µM (inactive) | GI50 (CAKI-1): 31.6 µM (inactive) | GI50 (CCRF-CEM): 28.4 µM (inactive) | GI50 (COLO 205): 21 µM (inactive) | GI50 (EKVX): 64.6 µM (inactive) | GI50 (HCT-116): 21.8 µM (inactive) | GI50 (HCT-15): 35.2 µM | GI50 (HL-60): 16.5 µM (inactive) | GI50 (HOP-62): 44.8 µM (inactive) | GI50 (HOP-92): 62.2 µM (inactive) | GI50 (HT-29): 36.7 µM (inactive) | GI50 (Hs-578T): 71 µM (inactive) | GI50 (IGROV-1): 51.4 µM (inactive) | GI50 (K562): 32.3 µM (inactive) | GI50 (KM12): 33.1 µM (inactive) | GI50 (LOX IMVI): 21.1 µM (inactive) | GI50 (M14): 32.4 µM (inactive) | GI50 (MCF7): 33.3 µM (inactive) | GI50 (MDA-MB-231): 59.2 µM (inactive) | GI50 (MDA-MB-435): 37.6 µM (inactive) | GI50 (MDA-N): 22 µM (inactive) | GI50 (MOLT-4): 27 µM (inactive) | GI50 (Malme-3M): 33.4 µM (inactive) | GI50 (NCI-H226): 35.6 µM (inactive) | GI50 (NCI-H23): 50.4 µM (inactive) | GI50 (NCI-H460): 30.2 µM (inactive) | GI50 (NCI/ADR-RES): 25.7 µM (inactive) | GI50 (OVCAR-3): 19.3 µM (inactive) | GI50 (OVCAR-4): 39.5 µM (inactive) | GI50 (OVCAR-5): > 100 µM (inactive) | GI50 (OVCAR-8): 21 µM (inactive) | GI50 (PC-3): 28.9 µM (inactive) | GI50 (RXF 393): 29.9 µM (inactive) | GI50 (SF-295): 38.8 µM (inactive) | GI50 (SF-539): 19.6 µM (inactive) | GI50 (SK-MEL-28): 21.9 µM (inactive) | GI50 (SK-MEL-2): 19.1 µM (inactive) | GI50 (SK-MEL-5): 39.6 µM (inactive) | GI50 (SK-OV-3): 69.2 µM (inactive) | GI50 (SN12C): 50.5 µM (inactive) | GI50 (SNB-19): > 100 µM (inactive) | GI50 (SNB-75): 80 µM (inactive) | GI50 (SR): 23 µM (inactive) | GI50 (SW-620): 32.8 µM (inactive) | GI50 (TK-10): > 100 µM (inactive) | GI50 (U-251): 34.3 µM (inactive) | GI50 (UACC-257): 53 µM (inactive) | GI50 (UACC-62): 31.2 µM (inactive) | GI50 (UO-31): 34.1 µM (inactive)

CN(C)/C=N/[C@@H](C(=O)O)c1ccccc1
GI50 (786-0): > 100 µM (inactive) | GI50 (A498): > 100 µM (inactive) | GI50 (A549): > 100 µM (inactive) | GI50 (ACHN): > 100 µM (inactive) | GI50 (BT-549): > 100 µM (inactive) | GI50 (CCRF-CEM): > 100 µM (inactive) | GI50 (COLO 205): > 100 µM (inactive) | GI50 (DU-145): > 100 µM (inactive) | GI50 (EKVX): > 100 µM (inactive) | GI50 (HCC 2998): > 100 µM (inactive) | GI50 (HCT-116): > 100 µM (inactive) | GI50 (HCT-15): > 100 µM | GI50 (HL-60): > 100 µM (inactive) | GI50 (HOP-62): > 100 µM (inactive) | GI50 (HOP-92): > 100 µM (inactive) | GI50 (HT-29): > 100 µM (inactive) | GI50 (IGROV-1): > 100 µM (inactive) | GI50 (K562): > 100 µM (inactive) | GI50 (LOX IMVI): > 100 µM (inactive) | GI50 (M14): > 100 µM (inactive) | GI50 (MCF7): > 100 µM (inactive) | GI50 (MDA-MB-231): > 100 µM (inactive) | GI50 (MDA-MB-435): > 100 µM (inactive) | GI50 (MDA-N): > 100 µM (inactive) | GI50 (MOLT-4): > 100 µM (inactive) | GI50 (Malme-3M): > 100 µM (inactive) | GI50 (NCI-H226): > 100 µM (inactive) | GI50 (NCI-H23): > 100 µM (inactive) | GI50 (NCI-H460): > 100 µM (inactive) | GI50 (NCI/ADR-RES): > 100 µM (inactive) | GI50 (OVCAR-3): > 100 µM (inactive) | GI50 (OVCAR-4): > 100 µM (inactive) | GI50 (OVCAR-5): > 100 µM (inactive) | GI50 (OVCAR-8): > 100 µM (inactive) | GI50 (PC-3): > 100 µM (inactive) | GI50 (RPMI-8226): > 100 µM (inactive) | GI50 (SF-268): > 100 µM (inactive) | GI50 (SF-295): > 100 µM (inactive) | GI50 (SK-MEL-28): > 100 µM (inactive) | GI50 (SK-MEL-5): > 100 µM (inactive) | GI50 (SK-OV-3): > 100 µM (inactive) | GI50 (SN12C): > 100 µM (inactive) | GI50 (SNB-19): > 100 µM (inactive) | GI50 (SNB-75): > 100 µM (inactive) | GI50 (SR): > 100 µM (inactive) | GI50 (SW-620): > 100 µM (inactive) | GI50 (T47D): > 100 µM (inactive) | GI50 (TK-10): > 100 µM (inactive) | GI50 (U-251): > 100 µM (inactive) | GI50 (UACC-257): > 100 µM (inactive) | GI50 (UACC-62): > 100 µM (inactive) | GI50 (UO-31): > 100 µM (inactive)
